Reference: ChEMBL document CHEMBL1130830, “Broad spectrum matrix metalloproteinase inhibitors: an examination of succinamide hydroxamate inhibitors with P1 C alpha gem-disubstitution” (Bioorg Med Chem Lett, 1998)

Tests used:
[1] = target: Stromelysin-1 (Homo sapiens, UniProt P08254); assay: Inhibition of Matrix metalloprotease-3 (MMP-3)
[2] = target: 72 kDa type IV collagenase (Homo sapiens, UniProt P08253); assay: Inhibition of Matrix metalloprotease-2 (MMP-2)
[3] = target: T1, Interstitial collagenase (Homo sapiens, UniProt P03956); assay: Inhibition of matrix metalloprotease-1 (MMP-1)
T1 sequence (P03956 whole entry): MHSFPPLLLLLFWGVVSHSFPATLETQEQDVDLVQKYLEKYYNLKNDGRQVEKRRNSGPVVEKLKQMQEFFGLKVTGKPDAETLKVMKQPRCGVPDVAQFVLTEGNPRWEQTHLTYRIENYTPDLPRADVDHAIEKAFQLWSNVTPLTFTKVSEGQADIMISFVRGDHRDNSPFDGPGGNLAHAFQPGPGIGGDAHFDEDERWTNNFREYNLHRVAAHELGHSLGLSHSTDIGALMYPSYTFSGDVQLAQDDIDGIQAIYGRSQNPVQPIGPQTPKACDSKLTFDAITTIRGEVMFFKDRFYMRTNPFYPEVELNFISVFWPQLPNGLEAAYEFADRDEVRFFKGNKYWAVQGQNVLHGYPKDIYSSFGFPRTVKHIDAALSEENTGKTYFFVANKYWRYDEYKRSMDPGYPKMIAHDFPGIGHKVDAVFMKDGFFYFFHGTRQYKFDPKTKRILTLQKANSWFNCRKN

Chain of 72 kDa type IV collagenase (P08253 whole entry): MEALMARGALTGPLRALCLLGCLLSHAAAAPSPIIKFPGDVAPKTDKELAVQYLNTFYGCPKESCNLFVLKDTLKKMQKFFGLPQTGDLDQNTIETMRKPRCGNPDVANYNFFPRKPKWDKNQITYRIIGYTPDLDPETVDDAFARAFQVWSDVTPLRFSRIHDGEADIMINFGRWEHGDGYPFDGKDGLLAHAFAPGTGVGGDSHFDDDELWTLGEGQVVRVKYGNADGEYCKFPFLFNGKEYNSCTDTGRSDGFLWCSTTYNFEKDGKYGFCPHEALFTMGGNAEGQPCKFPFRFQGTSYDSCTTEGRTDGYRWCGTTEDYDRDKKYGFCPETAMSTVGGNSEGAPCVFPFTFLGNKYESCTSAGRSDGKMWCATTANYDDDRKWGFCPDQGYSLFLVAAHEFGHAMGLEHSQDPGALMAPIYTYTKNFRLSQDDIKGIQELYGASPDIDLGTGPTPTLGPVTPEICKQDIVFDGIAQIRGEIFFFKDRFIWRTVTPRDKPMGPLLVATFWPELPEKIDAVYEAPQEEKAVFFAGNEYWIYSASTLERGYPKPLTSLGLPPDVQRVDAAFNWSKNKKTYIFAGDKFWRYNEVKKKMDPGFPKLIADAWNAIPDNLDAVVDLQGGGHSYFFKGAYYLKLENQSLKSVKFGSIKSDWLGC
Chain of Stromelysin-1 (P08254 whole entry): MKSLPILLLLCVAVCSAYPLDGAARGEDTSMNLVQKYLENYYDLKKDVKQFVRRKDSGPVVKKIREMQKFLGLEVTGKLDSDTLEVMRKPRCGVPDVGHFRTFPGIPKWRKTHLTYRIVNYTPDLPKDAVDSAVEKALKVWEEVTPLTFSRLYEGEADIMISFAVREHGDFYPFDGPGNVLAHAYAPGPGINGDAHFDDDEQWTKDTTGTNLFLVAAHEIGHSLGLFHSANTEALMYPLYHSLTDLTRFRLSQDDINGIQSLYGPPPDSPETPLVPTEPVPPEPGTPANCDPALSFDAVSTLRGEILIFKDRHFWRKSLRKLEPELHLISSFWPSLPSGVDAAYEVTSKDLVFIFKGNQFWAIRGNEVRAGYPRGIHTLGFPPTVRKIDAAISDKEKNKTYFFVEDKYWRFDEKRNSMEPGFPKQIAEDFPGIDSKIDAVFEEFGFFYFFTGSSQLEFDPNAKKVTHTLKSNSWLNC

| Structure (SMILES) | IC50 [1] [nM] | IC50 [2] [nM] | IC50 [3] [nM] |
| --- | --- | --- | --- |
| C=CCC(CC=C)(C(=O)NO)[C@@H](CC(C)C)C(=O)N[C@@H](Cc1ccccc1)C(=O)NC | 2600 | 110 | 550 |
| CNC(=O)[C@H](Cc1ccccc1)NC(=O)[C@H](CC(C)C)C1(C(=O)NO)CCCC1 | 170 | 50 | 37 |
| C=CC[C@](C)(C(=O)NO)[C@@H](CC(C)C)C(=O)N[C@@H](CC1CCCCC1)C(=O)NCCc1ccccc1 | 160 | 64 | 110 |
| C=CC[C@](C)(C(=O)NO)[C@@H](CC(C)C)C(=O)N[C@@H](CC1CCCCC1)C(=O)NCCc1ccc(S(N)(=O)=O)cc1 | 15 | 23 | 6.9 |
| C=CC[C@@](C)(C(=O)NO)[C@@H](CC(C)C)C(=O)N[C@@H](Cc1ccccc1)C(=O)NC | 420 | 66 | 52 |
| C=CC[C@](C)(C(=O)NO)[C@@H](CC(C)C)C(=O)N[C@H](C(=O)Nc1ccccc1)C(C)(C)C | 95 | 6.2 | 50 |
| CNC(=O)[C@H](Cc1ccccc1)NC(=O)[C@H](CC(C)C)[C@H](C)C(=O)NO | 50 | 1.3 | 1.3 |
| CNC(=O)[C@H](Cc1ccccc1)NC(=O)[C@H](CC(C)C)C(C)(C)C(=O)NO | 170 | 2.3 | 9.4 |
| C=CC[C@](C)(C(=O)NO)[C@@H](CC(C)C)C(=O)N[C@H](C(=O)NC)C(C)(C)C | 480 | 2.5 | 2.7 |
| C=CC[C@](C)(C(=O)NO)[C@@H](CC(C)C)C(=O)N[C@@H](Cc1ccccc1)C(=O)Nc1ccccc1 | 91 | 52 | 120 |
| C=CC[C@](C)(C(=O)NO)[C@@H](CC(C)C)C(=O)N[C@@H](Cc1ccccc1)C(=O)NC | 25 | 4.2 | 3.1 |
| C=CC[C@@H](C(=O)NO)[C@@H](CC(C)C)C(=O)N[C@@H](Cc1ccccc1)C(=O)NC | 59 | 35 | 35 |
| C=CCC(C(=O)NO)C(CC(C)C)C(=O)N[C@@H](Cc1ccccc1)C(=O)NC (single isomer, unassigned) | 12 | 1.8 | 2.2 |
